Measurements: US20020164367A1, “Botanical drug for increasing immunity and decreasing side effects of chemotherapy” (priority 2001, published 2002)

What was measured:
chick myocardial cell = experiment: Survival rate of chick myocardial cells after Adriamycin induced damage (ABC immunoperoxidase staining); type: cell-based; conditions: Adriamycin 10μ for 24 hours after 4 days in culture; BDI 150 μg/ml
Protocol: Hears were removed from 11 days embryos and were dissociated at 37 C. for 45 minutes with 0.25% trypsin (sigma, type III), 0.025% collagenase (sigma, type I), and 0.005% pancreatin (NBCO) prepared in calcium and magnesium free saline G containing 4% chicken serum. Then the tissue was dispersed into a single cell suspension in culture medium containing 5 g/ml DNAse I (sigma). Viable cell counts were determined by hemocyometer counting. Cells were dispersed into 60 mm culture disher (surface area 2000 mm^2) at densities of 200 cells/mm^2.
Cultures were maintained in Ham's F-12K cln^− modified and supplemented with 5% fetal bovine serum. Tissue culture plates were incubated under at constant 5% CO2 and 95% air at 37° C. Cells counted—all cells were counted in 20 randomly selected fields across the entire dish. A Zeiss microscope 25× objective having a field of view of 0.32 mm^2 was used for cell counting.
Monoclonal antibodies (diluted 1:1000 in PBS/BSA) were used. Immunostaining procedure used modified method of immunoperoxidase staining as follows.
Culture plates were added antibody of cardiac myosin before 3 hours for staining. Then culture plates continuous incubated 3 hours at 37° C.
Cell determined by recording the color and the number of microscopic fields (250×). Normal cells were light green and dead cells were brown or very dark green. […]

white blood cells = conditions: rats, 10 days of treatment
[1] = tested on: bone marrow stem cells (CFU-S); conditions: mice, n=10
Interleukin-2 (rIL-2) = experiment: Effect of BDI on Interleukin-2 (rIL-2); type: in vivo; conditions: n=10
Excerpt: The methods of determination rIL-2 were regular.

peritoneal macrophage = conditions: macrophages with phagocytized chick red blood cells per 100 macrophages; BDI 5.5 mg/kg ip daily for 5 days; cyclophosphamide 4.5 mg/kg ip
Protocol: Male mice weight 18-20 g were used in the experiments and were divided into treated (BDI) and control groups. The dosage of BDI was 5.5 mg/kg injected intraperitoneally. The control mice were injected with same volume of normal saline. These injections were repeated daily for 5 days, both treated and control group were injected intraperitoneally with cyclosphosphamide.
Added 0.02 ml of 5% washed chick red blood cell suspension to 0.5 ml of the peritoneal exudates. Shook gently to mix and incubate at 37° C. for 5 minutes. Dipped two cover slips, closed to each other, in the above mixture and incubated for 30 minutes for the migration of the macrophages along the cover slips, fixed and stained with Sharma stain. Examined microscopically for:
Phagocytic rate—number of macrophages with phagocytized chick red blood cells per 100 macrophages counted.

lymphocytes = conditions: 3H-TdR 1 μCi/ml, PHA stimulated
Protocol: 0.2 ml of formic acid was then added for digestion till the precipitate was dissolved.

host cell = conditions: by weight; cited from earlier work
DNA viruses = conditions: by weight; cited from earlier work

Structure (SMILES): COc1cccc2c1C(=O)c1c(O)c3c(c(O)c1C2=O)C[C@@](O)(C(=O)CO)C[C@@H]3O[C@H]1C[C@H](N)[C@H](O)[C@H](C)O1 [Adriamycin]
- Survival rate (living/taotalx 100%) (chick myocardial cell): 36.0 ± 0.25 (*20) %

Structure (SMILES): O=P1(N(CCCl)CCCl)NCCCO1 (centres unmarked) [Cyclophosphamide]
- White blood cells x 10^3/cm^3 ± SD (white blood cells): 6.0 ± 0.70 10^3/cm^3
- Mean (CFU-S ± SD) [1]: 7.6 ± 0.8
- IL-2 (U/ml) ± SD (Interleukin-2 (rIL-2)): 47.5 ± 5.5 U/ml
- Phagocytic (rate ± SD) (peritoneal macrophage): 8.5 ± 0.90
- CPM ± SD (lymphoblastoid transformation) (lymphocytes): 600 ± 65 CPM

Structure (SMILES): Nc1ccn([C@@H]2O[C@H](CO)[C@@H](O)[C@@H]2O)c(=O)n1 [Cytarabine]
- Toxicity for host cell relative to Idoxuridine (host cell): 10 times
- Effectiveness relative to Idoxuridine (DNA viruses): about 10 times
